In PMC7771544 (ChemMedChem, 2016):
One block for each molecule: values may come before it.

Tests used:
MST3 = MST3 (Homo sapiens, UniProt Q9Y6E0); test: 33P-radiolabeled kinase assay; assay type: biochemical
CDK1 = conditions: cited from earlier work
CDK2 = conditions: cited from earlier work

Sequence of MST3 (Q9Y6E0 1-431 isoform Q9Y6E0-2): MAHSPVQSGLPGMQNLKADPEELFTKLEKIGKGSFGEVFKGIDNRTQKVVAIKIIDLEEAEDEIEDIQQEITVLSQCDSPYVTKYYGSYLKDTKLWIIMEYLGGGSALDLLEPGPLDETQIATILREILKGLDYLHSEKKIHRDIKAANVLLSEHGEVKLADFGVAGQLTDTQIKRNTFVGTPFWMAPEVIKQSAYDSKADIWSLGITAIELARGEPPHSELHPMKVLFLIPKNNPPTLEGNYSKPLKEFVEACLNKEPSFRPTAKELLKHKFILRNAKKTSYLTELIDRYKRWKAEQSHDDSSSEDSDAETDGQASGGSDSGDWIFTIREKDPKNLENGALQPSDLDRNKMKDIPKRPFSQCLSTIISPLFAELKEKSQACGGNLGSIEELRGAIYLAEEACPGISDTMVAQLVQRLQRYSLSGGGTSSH

- fold difference in MST3 inhibitory activity (MST3; less active than the related compound(s) of the same scaffold): 20 fold
Molecule: CCN(CC)CCNC(=O)c1c(C)[nH]c(/C=C2\C(=O)Nc3ccc(F)cc32)c1C [sunitinib]

- IC50 (MST3): 260 nM
Molecule: COCCOc1ccc2c(c1)ncn2-c1ccc2cccc(N3CCC(N)CC3)c2n1 [CP-673451]

Molecule: CDK1/2 inhibitor III
- activity against CDK1 (CDK1): sub-nanomolar
- activity against CDK2 (CDK2): sub-nanomolar

- IC50 (MST3): 3 nM
Molecule: COc1cc(Nc2c(C#N)cnc3cc(OCCCN4CCN(C)CC4)c(OC)cc23)c(Cl)cc1Cl [bosutinib]
